These molecules were tested on human umbilical vein endothelial cells (HUVEC) (assay: HUVEC proliferation assay). Conditions: Homo sapiens, HUVEC, Inhibition of HUVEC Proliferation; 50 nM; crude combinatorial urea library; read-out: % inhibition @ 50 nM.
Assay type: cell-based
Method in brief: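 Readout was MTT dye reduction (A595) after 72 h of stimulation with VEGF at 6 ng/ml final. Compound, in 0.1% DMSO final, was added 1 h before VEGF to HUVEC starved 24 h in 1% FBS. % inhibition was scaled between VEGF-alone and unstimulated wells; IC50 was fitted from triplicate dose curves.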

| Structure (SMILES) | inhibition at 0.05 µM |
| --- | --- |
| COc1cccc(C(=O)Nc2cc(-c3csc(-c4sc(NC(=O)NCCNc5ccccc5)nc4N)n3)c(F)cc2F)c1 | 60% |
| COc1cccc(C(=O)Nc2cc(-c3csc(-c4sc(NC(=O)NCC(C)O)nc4N)n3)c(F)cc2F)c1 (centres unmarked) | 111% |
| COc1cccc(C(=O)Nc2cc(-c3csc(-c4sc(NC(=O)NCCC(C)C)nc4N)n3)c(F)cc2F)c1 | 55% |
| COc1cccc(C(=O)Nc2cc(-c3csc(-c4sc(NC(=O)NCC5CCCO5)nc4N)n3)c(F)cc2F)c1 (centres unmarked) | 92% |
| COc1cccc(C(=O)Nc2cc(-c3csc(-c4sc(NC(=O)NCCC5CCCN5C)nc4N)n3)c(F)cc2F)c1 (centres unmarked) | 27% |
| COc1cccc(C(=O)Nc2cc(-c3csc(-c4sc(NC(=O)NCCN5CCCCC5)nc4N)n3)c(F)cc2F)c1 | 74% |
| COc1cccc(C(=O)Nc2cc(-c3csc(-c4sc(NC(=O)NCCCN5CCCCC5C)nc4N)n3)c(F)cc2F)c1 (centres unmarked) | 86% |
| COc1cccc(C(=O)Nc2cc(-c3csc(-c4sc(NC(=O)NC5CCN(Cc6ccccc6)CC5)nc4N)n3)c(F)cc2F)c1 | 66% |
| COc1cccc(C(=O)Nc2cc(-c3csc(-c4sc(NC(=O)NCC(C)(C)CN(C)C)nc4N)n3)c(F)cc2F)c1 | 75% |
| COc1cccc(C(=O)Nc2cc(-c3csc(-c4sc(NC(=O)N[C@H]5CC[C@H](O)CC5)nc4N)n3)c(F)cc2F)c1 | 81% |
| COc1cccc(C(=O)Nc2cc(-c3csc(-c4sc(NC(=O)NCCC(=O)O)nc4N)n3)c(F)cc2F)c1 | 66% |
| COCCNC(=O)Nc1nc(N)c(-c2nc(-c3cc(NC(=O)c4cccc(OC)c4)c(F)cc3F)cs2)s1 | 21% |
| COc1cccc(C(=O)Nc2cc(-c3csc(-c4sc(NC(=O)NCC(F)(F)F)nc4N)n3)c(F)cc2F)c1 | 2% |
| COc1cccc(C(=O)Nc2cc(-c3csc(-c4sc(NC(=O)NCCCn5ccnc5)nc4N)n3)c(F)cc2F)c1 | 6% |
| COc1cccc(C(=O)Nc2cc(-c3csc(-c4sc(NC(=O)NCCc5ccc(S(N)(=O)=O)cc5)nc4N)n3)c(F)cc2F)c1 | 25% |
| CCCCN(CC)CCNC(=O)Nc1nc(N)c(-c2nc(-c3cc(NC(=O)c4cccc(OC)c4)c(F)cc3F)cs2)s1 | 24% |
| COc1cccc(C(=O)Nc2cc(-c3csc(-c4sc(NC(=O)NCc5ccc(N(C)C)cc5)nc4N)n3)c(F)cc2F)c1 | 39% |
| COc1cccc(C(=O)Nc2cc(-c3csc(-c4sc(NC(=O)NCP(=O)(O)O)nc4N)n3)c(F)cc2F)c1 | 48% |
| COc1cccc(C(=O)Nc2cc(-c3csc(-c4sc(NC(=O)NC(CO)CO)nc4N)n3)c(F)cc2F)c1 | 76% |
| COc1cccc(C(=O)Nc2cc(-c3csc(-c4sc(NC(=O)NCc5ccc(N)cc5)nc4N)n3)c(F)cc2F)c1 | 83% |
| COc1cccc(C(=O)Nc2cc(-c3csc(-c4sc(NC(=O)N[C@@H](CO)C(N)=O)nc4N)n3)c(F)cc2F)c1 | 69% |
| CNC(=O)Nc1nc(N)c(-c2nc(-c3cc(NC(=O)c4cccc(OC)c4)c(F)cc3F)cs2)s1 | 99% |
| COc1cccc(C(=O)Nc2cc(-c3csc(-c4sc(NC(=O)NCCNC(C)=O)nc4N)n3)c(F)cc2F)c1 | 105% |
| COc1cccc(C(=O)Nc2cc(-c3csc(-c4sc(NC(=O)N[C@H](CO)Cc5c[nH]cn5)nc4N)n3)c(F)cc2F)c1 | 47% |
| CCC(CO)NC(=O)Nc1nc(N)c(-c2nc(-c3cc(NC(=O)c4cccc(OC)c4)c(F)cc3F)cs2)s1 (centres unmarked) | 108% |
| COc1cccc(C(=O)Nc2cc(-c3csc(-c4sc(NC(=O)NCCCC(=O)O)nc4N)n3)c(F)cc2F)c1 | 40% |
| COc1cccc(C(=O)Nc2cc(-c3csc(-c4sc(NC(=O)NCCN5CCNCC5)nc4N)n3)c(F)cc2F)c1 | 46% |
| COc1cccc(C(=O)Nc2cc(-c3csc(-c4sc(NC(=O)NCc5ccc(S(N)(=O)=O)cc5)nc4N)n3)c(F)cc2F)c1 | 77% |
| COc1cccc(C(=O)Nc2cc(-c3csc(-c4sc(NC(=O)NCCCN(CCO)CCO)nc4N)n3)c(F)cc2F)c1 | 51% |
